These results are taken from patent publication US11814367B2, “Inhibitors of glycogen synthase 1 (GYS1) and methods of use thereof” (Maze Therapeutics, Inc., priority 2021, dated 2023).

Each structure is given as a SMILES string.

The test system of assay [1] is hGYS1 enzyme / glycogen synthesis in HeLa cells. The assay can be described thus: GYS1 cell based assay (glycogen synthesis, Glucose-glo). Details: species or system human. The conditions noted are these: Homo sapiens, HeLa, 24 h, 24 h incubation, 20 mM glucose, geometric mean of at least 2 runs. The essentials: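 HeLa cells starved 24 h in medium containing only 1× Glutamax were plated onto compound in medium with 20 mM glucose (1% DMSO final) for 24 h, 37 °C, 5% CO2. Acid lysates were Tris-quenched, glucoamylase-digested (pH 5.3, 1 h, 37 °C) and read by Glucose-glo luminescence. IC50 came from Hill fits, as geometric mean of ≥2 runs.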

The target in assay [2] is hGYS1 enzyme (recombinant hGYS1/GN1 protein) (Homo sapiens (Human), UniProt P13807). Put plainly: GYS1 coupled enzyme assay (PK/LDH). The note with it: hGYS1/GN1 50 nM, UDP-Glucose 0.8 mM, G6P 1 mM; geometric mean of at least 2 runs. It counts as biochemical.
Assay [3] has as its target hGYS2 enzyme (recombinant hGYS2/GN1 protein) (Homo sapiens (Human), UniProt P54840). Put plainly: GYS2 coupled enzyme assay (PK/LDH). It counts as biochemical. The conditions noted are these: geometric mean of at least 2 assay runs on separate days, read-out: Avg_IC50. The essentials:
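Read-out: NADH loss at 340 nm, read each minute for 10 min, slope normalized to controls, duplicate % inhibition fit to Hill (0–100). Enzyme: 200 nM hGYS2/GN1; substrate 2 mM UDP-glucose plus 0.2% glycogen and 2 mM G6P; pH 7.5 Tris, 2.5% DMSO.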

hGYS1 enzyme (recombinant hGYS1/GN1 protein), sequence (P13807 whole entry): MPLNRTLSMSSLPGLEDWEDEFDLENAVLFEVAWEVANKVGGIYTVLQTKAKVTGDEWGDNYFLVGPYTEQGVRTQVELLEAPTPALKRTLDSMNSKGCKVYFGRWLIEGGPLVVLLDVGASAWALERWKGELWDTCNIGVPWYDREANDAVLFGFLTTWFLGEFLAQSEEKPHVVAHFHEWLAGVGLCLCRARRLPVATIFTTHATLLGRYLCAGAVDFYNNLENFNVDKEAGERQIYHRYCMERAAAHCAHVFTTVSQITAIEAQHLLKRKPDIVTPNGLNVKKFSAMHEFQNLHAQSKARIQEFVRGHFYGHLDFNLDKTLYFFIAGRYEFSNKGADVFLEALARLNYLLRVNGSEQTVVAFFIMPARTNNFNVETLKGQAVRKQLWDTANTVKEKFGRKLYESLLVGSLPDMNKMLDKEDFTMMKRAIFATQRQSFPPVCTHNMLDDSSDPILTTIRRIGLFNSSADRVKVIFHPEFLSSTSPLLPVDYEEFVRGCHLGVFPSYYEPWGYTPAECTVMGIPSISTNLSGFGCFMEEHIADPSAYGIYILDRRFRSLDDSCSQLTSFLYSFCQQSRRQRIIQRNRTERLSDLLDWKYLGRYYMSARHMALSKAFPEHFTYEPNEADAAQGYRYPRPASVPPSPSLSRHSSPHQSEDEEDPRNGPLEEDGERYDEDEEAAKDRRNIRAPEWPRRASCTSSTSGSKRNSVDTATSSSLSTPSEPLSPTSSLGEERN
hGYS1 enzyme (recombinant hGYS1/GN1 protein), sequence (P46976 whole entry partner): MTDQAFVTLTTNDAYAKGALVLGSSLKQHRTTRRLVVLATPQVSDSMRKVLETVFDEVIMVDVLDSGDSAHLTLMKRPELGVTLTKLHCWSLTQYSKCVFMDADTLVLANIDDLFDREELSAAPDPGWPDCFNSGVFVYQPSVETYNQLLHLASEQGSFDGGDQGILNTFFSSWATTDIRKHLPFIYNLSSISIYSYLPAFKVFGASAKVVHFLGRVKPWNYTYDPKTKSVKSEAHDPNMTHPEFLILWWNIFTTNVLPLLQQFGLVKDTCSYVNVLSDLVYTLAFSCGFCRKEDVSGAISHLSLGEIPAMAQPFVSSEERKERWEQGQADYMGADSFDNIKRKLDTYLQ
hGYS2 enzyme (recombinant hGYS2/GN1 protein), sequence (P54840 whole entry): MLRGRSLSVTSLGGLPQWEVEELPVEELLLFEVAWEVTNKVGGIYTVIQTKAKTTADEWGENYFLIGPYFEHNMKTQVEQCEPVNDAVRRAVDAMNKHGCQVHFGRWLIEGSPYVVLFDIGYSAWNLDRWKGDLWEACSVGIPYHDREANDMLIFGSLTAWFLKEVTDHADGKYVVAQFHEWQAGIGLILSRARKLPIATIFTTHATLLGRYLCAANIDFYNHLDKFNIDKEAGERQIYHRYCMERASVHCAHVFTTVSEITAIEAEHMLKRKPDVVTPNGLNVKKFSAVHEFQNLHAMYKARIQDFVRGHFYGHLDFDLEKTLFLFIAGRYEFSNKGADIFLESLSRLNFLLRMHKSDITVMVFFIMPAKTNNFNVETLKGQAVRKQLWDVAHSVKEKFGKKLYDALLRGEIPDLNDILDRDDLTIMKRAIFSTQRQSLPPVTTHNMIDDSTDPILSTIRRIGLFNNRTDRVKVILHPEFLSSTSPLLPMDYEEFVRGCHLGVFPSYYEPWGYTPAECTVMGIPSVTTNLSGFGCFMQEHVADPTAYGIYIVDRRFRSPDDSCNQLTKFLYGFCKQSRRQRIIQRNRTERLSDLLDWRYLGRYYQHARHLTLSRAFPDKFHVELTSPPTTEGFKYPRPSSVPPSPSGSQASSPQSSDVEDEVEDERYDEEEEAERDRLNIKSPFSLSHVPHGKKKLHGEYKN
hGYS2 enzyme (recombinant hGYS2/GN1 protein), sequence (P46976 whole entry partner): as the sequence (P46976 whole entry partner) above

Regarding `O=C(N[C@@H](c1ccccc1)c1ccc(C2CC2)c(F)c1)[C@@H]1C[C@@H](F)CN1C(=O)Cc1noc(=O)[nH]1` [Compound 492, (2S,4R)-N-[(S)-(4-cyclopropyl-3-fluorophenyl)(phenyl)methyl]-4-fluoro-1-[2-(5-oxo-4,5-dihydro-1,2,4-oxadiazol-3-yl)acetyl]pyrrolidine-2-carboxamide], the figures for the IC50 in assay [1], in assay [2] and in assay [3] were above 30000 nM, 138 nM and above 100000 nM, respectively.

Consider `O=C(N[C@@H](c1ccccc1)c1ccc(C2CC2)c(F)c1)[C@@H]1C[C@@H](F)CN1C(=O)CNC(=O)N1CC(F)(F)C1` [Compound 495, (2S,4R)-N-[(S)-(4-cyclopropyl-3-fluorophenyl)(phenyl)methyl]-1-{2-[(3,3-difluoroazetidine-1-carbonyl)amino]acetyl}-4-fluoropyrrolidine-2-carboxamide], for which the IC50 in assay [1] was 1500 nM; in assay [2] it was 66 nM; in assay [3] it was above 100000 nM.

As for `O=C(N[C@@H](c1ccccc1)c1ccc(C2CC2)c(F)c1)[C@@H]1C[C@@H](F)CN1C(=O)CNC(=O)N1CC(C(F)(F)F)C1` [Compound 496, (2S,4R)-N-[(S)-(4-cyclopropyl-3-fluorophenyl)(phenyl)methyl]-4-fluoro-1-(2-{[3-(trifluoromethyl)azetidine-1-carbonyl]amino}acetyl) pyrrolidine-2-carboxamide], the IC50 in assay [1] was 1820 nM; in assay [2] it was 86 nM; in assay [3], above 100000 nM.

On to `CCn1c(=O)c(C)cn(CC(=O)N2C[C@H](F)C[C@H]2C(=O)N[C@@H](c2ccccc2)c2ccc(C3CC(F)(F)C3)c(F)n2)c1=O` [Compound 501, (2S,4R)—N—((S)-(5-(3,3-difluorocyclobutyl)-6-fluoropyridin-2-yl)(phenyl)methyl)-1-(2-(3-ethyl-5-methyl-2,4-dioxo-3,4-dihydropyrimidin-1(2H)-yl)acetyl)-4-fluoropyrrolidine-2-carboxamide], for which the IC50 in assay [1] was 50 nM; in assay [2], 3 nM; in assay [3], above 100000 nM.

In the case of `Cc1nn(CC(=O)N2C[C@H](F)C[C@H]2C(=O)N[C@@H](c2ccccc2)c2ccc(C3CC(F)(F)C3)c(F)n2)c(=O)o1` [Compound 502, (2S,4R)-N-[(S)-[5-(3,3-difluorocyclobutyl)-6-fluoropyridin-2-yl](phenyl)methyl]-4-fluoro-1-[2-(5-methyl-2-oxo-2,3-dihydro-1,3,4-oxadiazol-3-yl)acetyl]pyrrolidine-2-carboxamide], the results for the IC50 in assay [1], in assay [2] and in assay [3] were 170 nM, 10 nM and above 100000 nM, respectively.

In the case of `O=C(N[C@@H](c1ccccc1)c1ccc(C2CC(F)(F)C2)c(F)n1)[C@@H]1C[C@@H](F)CN1C(=O)CNC(=O)N1CCC1` [Compound 503, (2S,4R)-1-{2-[(azetidine-1-carbonyl)amino]acetyl}-N-[(S)-[5-(3,3-difluorocyclobutyl)-6-fluoropyridin-2-yl](phenyl)methyl]-4-fluoropyrrolidine-2-carboxamide], the IC50 in assay [1] was 240 nM; in assay [2], 8 nM; in assay [3], above 100000 nM.

For the molecule `O=C(N[C@@H](c1ccccc1)c1ccc(C2CC(F)(F)C2)c(F)n1)[C@@H]1C[C@@H](F)CN1C(=O)Cn1cnc2ccccc21` [Compound 504, (2S,4R)-1-[2-(1H-1,3-benzodiazol-1-yl)acetyl]-N-[(S)-[5-(3,3-difluorocyclobutyl)-6-fluoropyridin-2-yl](phenyl)methyl]-4-fluoropyrrolidine-2-carboxamide], the results for the IC50 in assay [1], in assay [2] and in assay [3] were 60 nM, 3 nM and above 100000 nM, respectively.

As to `O=C(N[C@@H](c1ccccc1)c1ccc(C2CC(F)(F)C2)c(F)n1)[C@@H]1C[C@@H](F)CN1C(=O)Cc1ncco1` [Compound 505, (2S,4R)-N-[(S)-[5-(3,3-difluorocyclobutyl)-6-fluoropyridin-2-yl](phenyl)methyl]-4-fluoro-1-[2-(1,3-oxazol-2-yl)acetyl]pyrrolidine-2-carboxamide], the figures for the IC50 in assay [1], in assay [2] and in assay [3] were 350 nM, 20 nM and above 100000 nM, respectively.

Regarding `Cc1cn(CC(=O)N2C[C@H](F)C[C@H]2C(=O)N[C@@H](c2ccccc2)c2ccc(C3CC(F)(F)C3)c(F)n2)c(=O)[nH]c1=O` [Compound 506, (2S,4R)-N-[(S)-[5-(3,3-difluorocyclobutyl)-6-fluoropyridin-2-yl](phenyl)methyl]-4-fluoro-1-[2-(5-methyl-2,4-dioxo-1,2,3,4-tetrahydropyrimidin-1-yl)acetyl] pyrrolidine-2-carboxamide], the values for the IC50 in assay [1], in assay [2] and in assay [3] were 370 nM, 4 nM and above 100000 nM, respectively.

`CN(C)C(=O)NCC(=O)N1C[C@H](F)C[C@H]1C(=O)N[C@@H](c1ccccc1)c1ccc(C2CC(F)(F)C2)c(F)n1` [Compound 507, (2S,4R)-N-[(S)-[5-(3,3-difluorocyclobutyl)-6-fluoropyridin-2-yl](phenyl)methyl]-1-{2-[(dimethylcarbamoyl)amino]acetyl}-4-fluoropyrrolidine-2-carboxamide]: the results for the IC50 in assay [1], in assay [2] and in assay [3] were 260 nM, 22 nM and above 100000 nM, respectively.

Regarding `O=C(N[C@@H](c1ccccc1)c1ccc(C2CC(F)(F)C2)c(F)n1)[C@@H]1C[C@@H](F)CN1C(=O)Cc1cnn[nH]1` [Compound 508, (2S,4R)-N-[(S)-[5-(3,3-difluorocyclobutyl)-6-fluoropyridin-2-yl](phenyl)methyl]-4-fluoro-1-[2-(1H-1,2,3-triazol-5-yl)acetyl]pyrrolidine-2-carboxamide], the figures for the IC50 in assay [1], in assay [2] and in assay [3] were 310 nM, 21 nM and above 100000 nM, respectively.

As for `Cc1cnc(CC(=O)N2C[C@H](F)C[C@H]2C(=O)N[C@@H](c2ccccc2)c2ccc(C3CC(F)(F)C3)c(F)n2)o1` [Compound 509, (2S,4R)-N-[(S)-[5-(3,3-difluorocyclobutyl)-6-fluoropyridin-2-yl](phenyl)methyl]-4-fluoro-1-[2-(5-methyl-1,3-oxazol-2-yl)acetyl]pyrrolidine-2-carboxamide], the results for the IC50 in assay [1], in assay [2] and in assay [3] were 180 nM, 8 nM and above 100000 nM, respectively.

Take `O=C(N[C@@H](c1ccccc1)c1ccc(C2CC(F)(F)C2)c(F)n1)[C@@H]1C[C@@H](F)CN1C(=O)Cc1[nH]nnc1C(F)(F)F` [Compound 510, (2S,4R)-N-[(S)-[5-(3,3-difluorocyclobutyl)-6-fluoropyridin-2-yl](phenyl)methyl]-4-fluoro-1-{2-[4-(trifluoromethyl)-1H-1,2,3-triazol-5-yl]acetyl} pyrrolidine-2-carboxamide]: the IC50 in assay [1] was 230 nM; in assay [2], 9 nM; in assay [3] it was above 100000 nM.

Take `Cc1coc(CC(=O)N2C[C@H](F)C[C@H]2C(=O)N[C@@H](c2ccccc2)c2ccc(C3CC(F)(F)C3)c(F)n2)n1` [Compound 511, (2S,4R)-N-[(S)-[5-(3,3-difluorocyclobutyl)-6-fluoropyridin-2-yl](phenyl)methyl]-4-fluoro-1-[2-(4-methyl-1,3-oxazol-2-yl)acetyl]pyrrolidine-2-carboxamide]: the IC50 is 260 nM in assay [1], 12 nM in assay [2] and above 100000 nM in assay [3].
